Source: ChEMBL document CHEMBL5143584, “A dual aurora and lim kinase inhibitor reduces glioblastoma proliferation and invasion” (Bioorg Med Chem Lett, 2022)
Calls of active or inactive are those of the source. The calls are words filed in the database; no cut-off is given here.

Columns and labels:
[1] = test system: GBM; assay: Antiproliferative activity against fluorescently labelled human GBM cells are co-cultured with mature brain organoids differentiated from iPSCs assessed as reduction in total number of GBM cells at 500 nM incubated for 10 days by fluorescent confocal microscopy; assay type: functional, cell-based; settings: time 10.0 day
[2] = Antiproliferative activity against human GBM22 cells assessed as inhibition of cell proliferation by CellTiter-Glo ATP content assay; assay type: functional, cell-based; settings: GBM
[3] = Antiproliferative activity against human GBM22 cells assessed as inhibition of cell proliferation incubated for 24 hrs by live/dead fluorescence imaging-based assay; assay type: functional; settings: GBM
[4] = test system: GBM; assay: Anti-invasion activity against fluorescently labelled human GBM cells are co-cultured with mature brain organoids differentiated from iPSCs assessed as reduction in number of invading GBM cells at 500 nM incubated for 10 days by fluorescent confocal microscopy; assay type: functional, cell-based; settings: time 10.0 day
[5] = Toxicity in human mature brain organoids differentiated from iPSCs assessed as decrease in organoid volume and surface area at 500 nM incubated for 10 days; assay type: cell-based; settings: 240 h, 0.5 µM, time 10 day
[6] = test system: GBM; assay: Antiproliferative activity against fluorescently labelled human GBM cells are co-cultured with mature brain organoids differentiated from iPSCs assessed as reduction in total number of GBM cells by FACS; assay type: functional, cell-based
[7] = biological target: LIM domain kinase 1 (Homo sapiens, UniProt P53667); assay: Inhibition of LIMK1 (unknown origin)
LIM domain kinase 1, sequence (P53667 whole entry, the tested form may be a part): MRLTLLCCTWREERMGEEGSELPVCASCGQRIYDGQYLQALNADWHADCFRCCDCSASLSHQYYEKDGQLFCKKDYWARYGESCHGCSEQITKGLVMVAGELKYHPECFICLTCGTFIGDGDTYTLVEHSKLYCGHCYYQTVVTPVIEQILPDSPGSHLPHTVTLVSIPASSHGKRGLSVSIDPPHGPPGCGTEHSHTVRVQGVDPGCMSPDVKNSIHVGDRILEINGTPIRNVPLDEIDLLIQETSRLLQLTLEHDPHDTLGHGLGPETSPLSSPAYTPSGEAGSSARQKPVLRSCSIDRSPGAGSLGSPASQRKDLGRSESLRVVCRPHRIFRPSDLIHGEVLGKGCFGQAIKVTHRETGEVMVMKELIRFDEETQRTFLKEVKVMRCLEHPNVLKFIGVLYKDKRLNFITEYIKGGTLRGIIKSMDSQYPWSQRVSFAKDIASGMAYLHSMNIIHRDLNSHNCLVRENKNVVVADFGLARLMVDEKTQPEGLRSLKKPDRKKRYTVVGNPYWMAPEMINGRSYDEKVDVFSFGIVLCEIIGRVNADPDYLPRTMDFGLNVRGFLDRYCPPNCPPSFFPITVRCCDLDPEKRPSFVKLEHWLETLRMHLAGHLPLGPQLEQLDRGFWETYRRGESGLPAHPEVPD

[8] = biological target: T1, Aurora kinase A (Homo sapiens, UniProt O14965); assay: Inhibition of AURKA (unknown origin)
T1 sequence (O14965 whole entry): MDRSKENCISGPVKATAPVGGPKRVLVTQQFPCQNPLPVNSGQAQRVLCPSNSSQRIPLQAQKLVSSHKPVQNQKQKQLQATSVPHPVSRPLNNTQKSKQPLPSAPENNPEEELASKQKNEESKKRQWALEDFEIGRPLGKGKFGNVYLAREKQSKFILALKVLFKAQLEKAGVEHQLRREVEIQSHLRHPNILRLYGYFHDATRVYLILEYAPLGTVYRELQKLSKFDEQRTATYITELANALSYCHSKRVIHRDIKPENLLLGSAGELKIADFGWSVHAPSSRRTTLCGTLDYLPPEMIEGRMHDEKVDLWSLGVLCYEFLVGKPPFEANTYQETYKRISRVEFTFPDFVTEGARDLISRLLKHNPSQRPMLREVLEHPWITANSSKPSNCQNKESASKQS

[9] = biological target: Aurora kinase B (Homo sapiens, UniProt Q96GD4); assay: Inhibition of AURKB (unknown origin)
Aurora kinase B, sequence (Q96GD4 whole entry): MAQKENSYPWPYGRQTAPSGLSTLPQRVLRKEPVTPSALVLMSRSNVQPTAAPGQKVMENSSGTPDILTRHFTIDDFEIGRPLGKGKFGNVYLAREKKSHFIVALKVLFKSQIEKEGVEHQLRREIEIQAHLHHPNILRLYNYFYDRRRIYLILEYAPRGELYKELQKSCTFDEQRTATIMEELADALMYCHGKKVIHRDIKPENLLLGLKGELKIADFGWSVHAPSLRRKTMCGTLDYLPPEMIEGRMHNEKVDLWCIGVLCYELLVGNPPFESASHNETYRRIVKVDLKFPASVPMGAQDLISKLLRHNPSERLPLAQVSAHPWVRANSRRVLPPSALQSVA

[10] = Antiproliferative activity against human GBM22 cells assessed as inhibition of cell proliferation incubated for 48 hrs by live/dead fluorescence imaging-based assay; assay type: functional; settings: GBM
[11] = test system: GBM; assay: Antiproliferative activity against fluorescently labelled human GBM cells are co-cultured with mature brain organoids differentiated from iPSCs assessed as reduction in total number of GBM cells incubated for 10 days by fluorescent confocal microscopy; assay type: functional, cell-based; settings: time 10.0 day
[12] = Toxicity in human mature brain organoids differentiated from iPSCs assessed as decrease in organoid volume and surface area incubated for 10 days; assay type: cell-based; settings: 240 h, time 10 day
[13] = test system: GBM; assay: Anti-invasion activity against fluorescently labelled human GBM cells are co-cultured with mature brain organoids differentiated from iPSCs assessed as reduction in number of invading GBM cells incubated for 10 days by fluorescent confocal microscopy; assay type: functional, cell-based; settings: time 10.0 day

IC50 [7] [µM]	IC50 [8] [µM]	IC50 [9] [µM]	Compound	Activity [1]	IC50 [2] [µM]	IC50 [3] [µM]	Activity [4]	Activity [5]	Activity [6]	IC50 [10] [µM]	Activity [11]	Activity [12]	Activity [13]
0.137	0.072	0.017	CC(C)n1cc(Nc2ncc3ccc(=O)n(C(C)C)c3n2)cn1	Active	5.34	2.46	Active	Toxic	Active	1.53	–	–	–
–	–	–	Cc1csc(-c2nnc(Nc3ccc(Oc4ncccc4-c4ccnc(N)n4)cc3)c3ccccc23)c1 [AMG-900]	–	–	–	–	–	–	–	Active	Non-Toxic	–
–	–	–	CC(C)C(=O)Nc1ncc(-c2cc(C(F)F)nn2-c2c(Cl)cccc2Cl)s1	–	–	–	–	–	–	–	Active	Non-Toxic	Active
